Assay results taken from patent publication US8114904B2, “Luminescence quenchers and fluorogenic probes for detection of reactive species” (Versitech Limited & Morningside Ventures Limited, priority 2008, dated 2012).

Experiments:
[1] = tested on: Murine J744.1 macrophages; assay: Cell assay: detection of peroxynitrite in living cells by fluorescent microscopy; format: cell-based
Experimental: (§1) Murine J744.1 macrophages (ATCC, USA) were used to investigate the potential of Compound 22 (acetate form of Compound 10) for the detection of peroxynitrite in living cells. J744.1 macrophages were cultured in Dulbecco's Modified Eagle's Medium (DMEM) (Gibco) containing 10% heat-inactivated fetal bovine serum (Gibco) supplemented with 100 U/ml of penicillin and 100 μg/ml streptomycin at 37° C., 5% CO2. They were subcultured by scraping and seeded on six-well plates according to manufacture's instruction. The growth medium was changed every two to three days. Cells were grown to confluence prior to experiment. Murine J744.1 macrophages were incubated with Compound 22 (20 μM) for 1 hr and then washed three times with PBS buffer.
as §1, with “12 and 12a” for “22 (acetate form of Compound 10)”, “12 or 12a” for “22”, “buffer. […] The fluorescence was induced after treatment with LPS (lipopolysaccharide, 1 μg/ml) for 4 hrs (FIG. 9D and FIG. 10B).” for “buffer.”

[2] = Comparison of specificity with different ROS and RNS; conditions: for fluorescence enhancement by peroxynitrite compared with any other ROS and RNS: 25° C.
Experimental: The reactivity of Compound 10 was compared toward different reactive oxygen species (ROS) and reactive nitrogen species (RNS), including OCl^−, H2O2, ^1O2, NO, O2^•−, ^•OH, ONOO^− and alkylperoxyl radical (ROO^•). Different reactive oxygen species and reactive nitrogen species were added independently to 5 mL of the solution of Compound 10 (10 μM in 0.1 M potassium phosphate buffer). The changes of fluorescence intensity before and after the treatment were measured. The reactive oxygen species and reactive nitrogen species were prepared as follows. • a. H2O2 (final 100 μM) was added and then stirred for 1 hour at 25° C. • b. (3-(1,4-Dihydro-1,4-epidioxy-1-naphthyl)propionic acid) (final 100 μM) was added and then stirred at 25° C. for 1 hour. • c. 2,2′-Azobis(2-amidinopropane)dihydrochloride (final 100 μM) was added and then stirred at 25° C. for 1 hour. • d. SNP (Sodium Nitroferricyanide (III) Dihydrate) (final 100 μM) was added and then stirred for 1 hour at 25° C. • e. O2^•− was generated by xanthine and xanthine oxidase. Xanthine oxidase was added firstly. After xanthine oxidase was dissolved, xanthine (final 100 μM) was added and the mixtures were stirred at 25° C. for 1 hour. • f. Ferrous chloride (final 10 μM) was added in the presence of 10 equivalences of H2O2 (100 μM). • g. ONOO^− (final 10 μM) was added at 25° C. • h. NaOCl (final 10 μM) was added at 25° C. Commercial bleach was the source of NaOCl.
The reactivity of Compound 12 was compared toward different reactive oxygen species (ROS) and reactive nitrogen species (RNS), including OCl^−, H2O2, ^1O2, NO, O2^•−, ^•OH, ONOO^− and alkylperoxyl radical (ROO^•). Different reactive oxygen species and reactive nitrogen species were added independently to 5 mL of the solution of Compound 12 (1 μM in 0.1 M potassium phosphate buffer). The changes of fluorescence intensity before and after the treatment were measured. The reactive oxygen species and reactive nitrogen species were prepared as follows: • i. H2O2 (final 100 μM) was added and then stirred for 1 hour at 25° C. • j. (3-(1,4-Dihydro-1,4-epidioxy-1-naphthyl)propionic acid) (final 100 μM) was added and then stirred at 25° C. for 1 hour. • k. 2,2′-Azobis(2-amidinopropane)dihydrochloride (final 100 μM) was added and then stirred at 25° C. for 1 hour. • l. SNP (Sodium Nitroferricyanide (III) Dihydrate) (final 100 μM) was added and then stirred for 1 hour at 25° C. • m. O2^•− was generated by xanthine and xanthine oxidase. Xanthine oxidase was added firstly. After xanthine oxidase was dissolved, xanthine (final 100 μM) was added and the mixtures were stirred at 25° C. for 1 hour. • n. Ferrous chloride (final 10 μM) was added in the presence of 10 equivalences of H2O2 (100 μM). • o. ONOO^− (final 10 μM) was added at 25° C. • p. NaOCl (final 10 μM) was added at 25° C. Commercial bleach was the source of NaOCl.
The reactivity of Compound 14 was compared toward different reactive oxygen species (ROS) and reactive nitrogen species (RNS), including OCl^−, H2O2, ^1O2, NO, O2^•−, ^•OH, ONOO^− and alkylperoxyl radical (ROO^•). Different reactive oxygen species and reactive nitrogen species were added independently to 5 mL of the corresponding solution of Compound 14 (1 μM in 0.1 M potassium phosphate buffer). The changes in fluorescence intensity before and after the treatment were measured. The reactive oxygen species and reactive nitrogen species were prepared as follows: • a. H2O2 (final 100 μM) was added and then stirred for 1 hour at 25° C. • b. (3-(1,4-Dihydro-1,4-epidioxy-1-naphthyl)propionic acid) (final 100 μM) was added and then stirred at 25° C. for 1 hour. • c. 2,2′-Azobis(2-amidinopropane)dihydrochloride (final 100 μM) was added and then stirred at 25° C. for 1 hour. • d. SNP (Sodium Nitroferricyanide (III) Dihydrate) (final 100 μM) was added and then stirred for 1 hour at 25° C. • e. O2^•− was generated by xanthine and xanthine oxidase. Xanthine oxidase was added firstly. […]

[3] = 1 μM probe in 0.1 M potassium phosphate buffer
[4] = 10 μM probe in 0.1 M potassium phosphate buffer

For `CN(c1ccc(O)cc1)c1ccc2c(c1)Oc1cc(O)ccc1C21OC(=O)c2ccccc21` (centres unmarked) [Compound 12], the “fluorescence after treatment with LPS” value ([1]; 20 μM probe 1 hr, LPS 1 μg/ml for 4 hrs) was “induced”, the subcellular localization ([1]; J744.1 macrophages) was “may selectively localize in mitochondrials” and the “fluorescence observed in the absence of stimulants” value ([1]; J744.1 macrophages incubated with 20 μM probe for 1 hr) was “very weak fluorescence”. The “colocalization with mitochondrial dye MitoTracker Red CMXRos” value ([1]; LPS-stimulated J744.1 macrophages, 20 μM) was “colocalized”, the “reactivity among ROS and RNS in an abiotic system” value [2, 3] was “much higher reactivity towards peroxynitrite” and the “fluorescence enhancement by peroxynitrite compared with any other ROS and RNS” value [2, 3] was “much stronger fluorescence enhancement”.

In the case of `CN(c1ccc(CCC(=O)C(F)(F)F)cc1)c1cc2c(cc1Cl)C1(OC(=O)c3ccccc31)c1cc(Cl)c(O)cc1O2` (centres unmarked) [Compound 10], the “reactivity among ROS and RNS in an abiotic system” value [2, 4] is reported as “much higher reactivity towards peroxynitrite” and the “fluorescence enhancement by peroxynitrite compared with any other ROS and RNS” value [2, 4] is reported as “much stronger fluorescence enhancement”.
